According to patent US20210261553A1, “FUSED TETRAZOLES AS LRRK2 INHIBITORS” (E-SCAPE Bio, Inc., priority 2018, published 2021):

What was measured:
[1] = target: T1, Recombinant G2019S-LRRK2 protein (Homo sapiens, UniProt Q5S007, G2019S); test: LRRK2 kinase activity assay (LanthaScreen TR-FRET), G2019S mutant; assay type: biochemical; conditions: 400 nM LRRKtide, 25 μM ATP, 60 min at room temperature
T1 construct: purchased Life Technologies PV4881
Protocol: (§1) LRRK2 kinase activity was measured using a LanthaScreen™ Kinase Activity Assay from ThermoFisher Scientific. Recombinant wild type or G2019S-LRRK2 protein (Life Technologies, PR8604B or PV4881, respectively), was incubated with a fluorescein-labeled peptide substrate called LRRKtide that is based upon ezrin/radixin/moesin (ERM) (Life Technologies, PV4901) in the presence of ATP and serially diluted compound. After an incubation period of 1 hr, the phosphotransferase activity was stopped and a terbium-labelled anti-pERM antibody (Life Technologies, PV4899) was added to detect the phosphorylation of LRRKtide by measuring the time resolved-Forster resonant energy transfer (TR-FRET) signal from the terbium label on the antibody to the fluorescein tag on LRRKtide, expressed as the 520 nm/495 nm emission ratio. Compound-dependent inhibition of the TR-FRET signal was used to generate a concentration-response curve for IC50 determination.
(§2) The assay was carried out under the following protocol conditions: 1 mM compound in DMSO was serially diluted 1:3, 11 points in DMSO with a Biomek FX and 0.1 μL of the diluted compound was subsequently stamped into the assay plate (384-well format Lumitrac 200, Greiner, 781075) with an Echo Labcyte such that the final compound concentration in the assay was 10 μM to […]. Subsequently, 5 μL of 2× kinase solution (2.9 nM final concentration) was added to the assay plate in assay buffer composed of 50 mM Tris pH 8.5 (Sigma, T6791), 5 mM MgCl2 (Fluka, 63020), 1 mM EGTA (Sigma, E3889), 0.01% BRU-35 (Sigma, P1254) and 2 mM DTT. The reaction was started by addition of 2×ATP/LRRKtide solution in assay buffer such that the final concentration was 400 nM LRRKtide and 25 μM ATP. After 60 min incubation at room temperature, the reaction was stopped by addition of […] containing a final concentration of 2 nM anti-pERM antibody and […]. After a 30 min incubation at RT, the TR-FRET signal was measured on a Wallac 2104 EnVision® multilabel reader at an excitation wavelength of 340 nm and reading emission at 520 nm and 495 nm. The ratio of the 520 nm and 495 nm emission was used to analyze the data.

[2] = target: T2, Recombinant wild type LRRK2 protein (Homo sapiens, UniProt Q5S007); test: LRRK2 kinase activity assay (LanthaScreen TR-FRET), wild type; assay type: biochemical; conditions: 400 nM LRRKtide, 25 μM ATP, 60 min at room temperature; read-out: LRRK2 WT IC50
T2 construct: purchased Life Technologies PR8604B
Protocol: as §1, §2

T1 sequence (Q5S007 970-2527 G2019S limits assumed): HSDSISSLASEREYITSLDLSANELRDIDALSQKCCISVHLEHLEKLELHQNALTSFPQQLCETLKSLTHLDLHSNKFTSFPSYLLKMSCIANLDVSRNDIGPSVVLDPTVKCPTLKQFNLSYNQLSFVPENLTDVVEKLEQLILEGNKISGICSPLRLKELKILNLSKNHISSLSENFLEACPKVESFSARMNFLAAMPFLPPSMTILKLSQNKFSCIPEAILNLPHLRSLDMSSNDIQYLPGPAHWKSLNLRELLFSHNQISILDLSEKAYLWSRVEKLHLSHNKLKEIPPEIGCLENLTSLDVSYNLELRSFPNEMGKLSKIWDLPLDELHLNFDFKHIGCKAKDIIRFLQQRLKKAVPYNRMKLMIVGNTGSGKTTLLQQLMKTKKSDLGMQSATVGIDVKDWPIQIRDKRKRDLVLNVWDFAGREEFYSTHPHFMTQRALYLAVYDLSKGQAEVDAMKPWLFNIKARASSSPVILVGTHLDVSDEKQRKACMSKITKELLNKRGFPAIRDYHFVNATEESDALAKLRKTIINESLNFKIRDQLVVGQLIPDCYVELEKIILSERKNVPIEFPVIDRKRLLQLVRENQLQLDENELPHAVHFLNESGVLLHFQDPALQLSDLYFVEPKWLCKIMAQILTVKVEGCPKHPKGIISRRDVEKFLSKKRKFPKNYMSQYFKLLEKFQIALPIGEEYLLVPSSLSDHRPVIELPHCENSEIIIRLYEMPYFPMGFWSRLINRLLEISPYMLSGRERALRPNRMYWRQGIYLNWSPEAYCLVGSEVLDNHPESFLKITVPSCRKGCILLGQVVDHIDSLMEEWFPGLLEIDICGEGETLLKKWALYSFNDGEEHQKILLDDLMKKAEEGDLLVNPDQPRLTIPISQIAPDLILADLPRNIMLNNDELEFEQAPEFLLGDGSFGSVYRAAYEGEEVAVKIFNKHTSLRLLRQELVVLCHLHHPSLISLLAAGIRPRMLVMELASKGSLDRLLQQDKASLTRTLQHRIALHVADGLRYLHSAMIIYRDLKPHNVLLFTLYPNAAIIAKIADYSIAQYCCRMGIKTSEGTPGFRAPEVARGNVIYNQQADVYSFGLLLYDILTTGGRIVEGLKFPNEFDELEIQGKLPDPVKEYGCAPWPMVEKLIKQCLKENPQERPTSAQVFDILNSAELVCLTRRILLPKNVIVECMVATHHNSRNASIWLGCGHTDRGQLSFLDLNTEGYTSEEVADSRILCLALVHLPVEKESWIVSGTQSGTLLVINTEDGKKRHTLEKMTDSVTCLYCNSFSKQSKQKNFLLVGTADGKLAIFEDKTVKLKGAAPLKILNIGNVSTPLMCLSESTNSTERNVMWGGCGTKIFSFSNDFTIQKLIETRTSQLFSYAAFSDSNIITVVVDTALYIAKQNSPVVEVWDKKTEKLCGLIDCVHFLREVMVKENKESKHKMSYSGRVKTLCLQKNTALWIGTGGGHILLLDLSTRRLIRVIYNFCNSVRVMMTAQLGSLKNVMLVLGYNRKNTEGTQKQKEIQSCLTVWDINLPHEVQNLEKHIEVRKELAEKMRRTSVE
T2 sequence (Q5S007 whole entry): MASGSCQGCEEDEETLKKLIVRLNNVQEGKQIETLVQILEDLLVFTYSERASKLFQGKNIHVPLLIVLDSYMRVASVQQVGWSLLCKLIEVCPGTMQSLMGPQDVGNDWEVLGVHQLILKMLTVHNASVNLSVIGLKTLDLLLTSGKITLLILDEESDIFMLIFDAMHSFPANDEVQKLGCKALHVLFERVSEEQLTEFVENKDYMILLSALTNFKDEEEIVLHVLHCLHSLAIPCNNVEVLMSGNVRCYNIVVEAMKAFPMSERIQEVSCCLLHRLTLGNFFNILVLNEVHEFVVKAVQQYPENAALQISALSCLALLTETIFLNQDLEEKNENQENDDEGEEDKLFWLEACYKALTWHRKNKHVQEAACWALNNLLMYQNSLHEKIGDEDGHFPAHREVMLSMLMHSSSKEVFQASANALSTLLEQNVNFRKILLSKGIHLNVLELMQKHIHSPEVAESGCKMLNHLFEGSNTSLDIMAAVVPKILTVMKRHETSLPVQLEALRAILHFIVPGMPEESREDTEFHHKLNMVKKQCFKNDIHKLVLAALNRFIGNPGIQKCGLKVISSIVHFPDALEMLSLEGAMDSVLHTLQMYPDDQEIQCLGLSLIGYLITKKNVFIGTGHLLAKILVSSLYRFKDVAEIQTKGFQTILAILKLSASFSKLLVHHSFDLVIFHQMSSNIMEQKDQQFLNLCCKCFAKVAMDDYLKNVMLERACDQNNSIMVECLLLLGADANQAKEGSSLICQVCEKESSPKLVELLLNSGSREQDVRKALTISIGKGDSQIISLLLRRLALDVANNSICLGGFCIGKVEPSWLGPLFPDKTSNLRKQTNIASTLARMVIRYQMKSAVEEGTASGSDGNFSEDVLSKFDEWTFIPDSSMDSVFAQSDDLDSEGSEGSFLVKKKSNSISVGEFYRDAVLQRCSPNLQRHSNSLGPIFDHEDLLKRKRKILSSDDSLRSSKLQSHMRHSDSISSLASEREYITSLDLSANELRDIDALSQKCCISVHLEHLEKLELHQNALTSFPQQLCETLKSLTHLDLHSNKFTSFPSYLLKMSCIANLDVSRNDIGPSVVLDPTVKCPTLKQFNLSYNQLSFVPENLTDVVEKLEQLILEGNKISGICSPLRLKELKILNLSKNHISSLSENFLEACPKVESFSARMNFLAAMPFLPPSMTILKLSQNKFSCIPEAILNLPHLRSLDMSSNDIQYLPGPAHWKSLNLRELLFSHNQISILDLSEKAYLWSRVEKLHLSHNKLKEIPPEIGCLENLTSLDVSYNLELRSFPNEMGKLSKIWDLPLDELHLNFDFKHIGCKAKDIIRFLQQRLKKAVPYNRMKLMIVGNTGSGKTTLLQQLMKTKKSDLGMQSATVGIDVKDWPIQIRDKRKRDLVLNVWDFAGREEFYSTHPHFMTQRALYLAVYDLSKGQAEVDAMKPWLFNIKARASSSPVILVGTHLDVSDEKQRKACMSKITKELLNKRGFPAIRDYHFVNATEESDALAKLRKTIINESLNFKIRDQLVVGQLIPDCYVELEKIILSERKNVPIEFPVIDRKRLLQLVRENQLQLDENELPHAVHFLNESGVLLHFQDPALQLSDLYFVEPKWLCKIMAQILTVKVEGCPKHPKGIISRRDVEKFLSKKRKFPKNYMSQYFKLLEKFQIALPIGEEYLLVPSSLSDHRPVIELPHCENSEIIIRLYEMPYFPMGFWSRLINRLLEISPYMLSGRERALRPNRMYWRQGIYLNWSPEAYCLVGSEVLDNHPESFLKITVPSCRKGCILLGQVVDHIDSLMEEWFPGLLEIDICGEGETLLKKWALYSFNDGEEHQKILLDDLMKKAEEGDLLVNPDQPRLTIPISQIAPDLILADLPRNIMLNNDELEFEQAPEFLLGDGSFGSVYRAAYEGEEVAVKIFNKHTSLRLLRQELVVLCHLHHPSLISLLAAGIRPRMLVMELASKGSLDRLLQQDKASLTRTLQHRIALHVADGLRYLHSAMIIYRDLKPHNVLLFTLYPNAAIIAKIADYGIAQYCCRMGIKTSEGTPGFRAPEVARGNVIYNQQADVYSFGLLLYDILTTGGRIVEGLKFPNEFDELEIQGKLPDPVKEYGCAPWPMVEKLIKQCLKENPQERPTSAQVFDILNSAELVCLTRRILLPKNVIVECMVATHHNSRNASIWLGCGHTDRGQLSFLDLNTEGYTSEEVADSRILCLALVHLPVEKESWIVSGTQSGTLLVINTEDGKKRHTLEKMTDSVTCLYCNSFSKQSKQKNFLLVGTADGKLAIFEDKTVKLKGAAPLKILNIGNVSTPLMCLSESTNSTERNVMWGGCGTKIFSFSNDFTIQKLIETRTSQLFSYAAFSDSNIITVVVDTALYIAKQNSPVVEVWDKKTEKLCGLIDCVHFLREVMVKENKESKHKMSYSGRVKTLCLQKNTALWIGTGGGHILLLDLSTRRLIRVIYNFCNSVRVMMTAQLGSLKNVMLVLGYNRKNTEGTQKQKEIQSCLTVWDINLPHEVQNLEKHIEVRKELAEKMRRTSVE

IC50 [1] [nM]	IC50 [2] [nM]	SMILES
≤ 100	100 to 1000	CCC1C(C(=O)Nc2ccc3[nH]ncc3c2)=C(C)N(C)c2nnnn21 (racemic) [Example 8, 7-Ethyl-N-(1H-indazol-5-yl)-4,5-dimethyl-4H,7H-[1,2,3,4]tetrazolo[1,5-a]pyrimidine-6-carboxamide]
≤ 100	100 to 1000	CC1=C(C(=O)Nc2cc3cn[nH]c3cn2)C(C)n2nnnc2N1C (racemic) [Example 23, 4,5,7-trimethyl-N-(1H-pyrazolo[3,4-c]pyridin-5-yl)-4,7-dihydrotetrazolo[1,5-a]pyrimidine-6-carboxamide]
≤ 100	≤ 100	CC1=C(C(=O)Nc2ccc3[nH]ncc3c2)C(C)n2nnnc2N1C (single isomer, unassigned) [Example 2a]
100 to 1000	1000 to 10000	CC1=C(C(=O)Nc2ccc3[nH]ncc3c2)C(C)n2nnnc2N1C (single isomer, unassigned) [Example 2b]
≤ 100	100 to 1000	CCC1C(C(=O)Nc2ccc3[nH]ncc3c2)=C(C)N(C)c2nnnn21 (single isomer, unassigned) [Example 8a]
≤ 100	100 to 1000	CCC1C(C(=O)Nc2ccc3[nH]ncc3c2)=C(C)N(C)c2nnnn21 (single isomer, unassigned) [Example 8b]
≤ 100	≤ 100	CC1=C(C(=O)Nc2ccc3[nH]nc(-c4ccnc(N5CCOCC5)c4)c3c2)[C@@H](C)n2nnnc2N1C (single isomer, unassigned) [Example 24a]
≤ 100	≤ 100	CC1=C(C(=O)Nc2ccc3[nH]nc(-c4ccnc(N5CCOCC5)c4)c3c2)[C@H](C)n2nnnc2N1C (single isomer, unassigned) [Example 24b]
≤ 100	100 to 1000	CC1=C(C(=O)Nc2ccc3[nH]ncc3c2)Cn2nnnc2N1C [Example 1, N-(1H-Indazol-5-yl)-4,5-dimethyl-4H,7H-[1,2,3,4]tetrazolo[1,5-a]pyrimidine-6-carboxamide]
≤ 100	100 to 1000	CC1=C(C(=O)Nc2ccc3[nH]ncc3c2)C(C)n2nnnc2N1C (stereo not shown) [Example 2, N-(1H-indazol-5-yl)-4,5,7-trimethyl-4H,7H-[1,2,3,4]tetrazolo[1,5-a]pyrimidine-6-carboxamide]
1000 to 10000	1000 to 10000	CC1=C(C(=O)Nc2ccc3cn[nH]c3c2)Cn2nnnc2N1C [Example 3, N-(1H-indazol-6-yl)-4,5-dimethyl-4H,7H-[1,2,3,4]tetrazolo[1,5-a]pyrimidine-6-carboxamide]
1000 to 10000	1000 to 10000	CC1=C(C(=O)Nc2ccc3[nH]ncc3c2)Cn2nnnc2N1CCN1CCOCC1 [Example 4, N-(1H-Indazol-5-yl)-5-methyl-4-[2-(morpholin-4-yl)ethyl]-4H,7H-[1,2,3,4]tetrazolo[1,5-a]pyrimidine-6-carboxamide]
100 to 1000	100 to 1000	CCC1=C(C(=O)Nc2ccc3[nH]ncc3c2)Cn2nnnc2N1C [Example 5, 5-Ethyl-N-(1H-indazol-5-yl)-4-methyl-4H,7H-[1,2,3,4]tetrazolo[1,5-a]pyrimidine-6-carboxamide]
≤ 100	≤ 100	CC1=C(C(=O)Nc2ccc3[nH]nc(-c4ccncc4)c3c2)Cn2nnnc2N1C [Example 6, 4,5-dimethyl-N-(3-(pyridin-4-yl)-1H-indazol-5-yl)-4,7-dihydrotetrazolo[1,5-a]pyrimidine-6-carboxamide]
≤ 100	≤ 100	CC1=C(C(=O)Nc2ccc3[nH]nc(-c4ccnc(N5CCOCC5)c4)c3c2)Cn2nnnc2N1C [Example 7, 4,5-Dimethyl-N-(3-(2-morpholinopyridin-4-yl)-1H-indazol-5-yl)-4,7-dihydrotetrazolo[1,5-a]pyrimidine-6-carboxamide]
≤ 100	≤ 100	CC1=C(C(=O)Nc2ccc3[nH]nc(-c4cc(N5CCOCC5)ncn4)c3c2)Cn2nnnc2N1C [Example 9, 4,5-Dimethyl-N-(3-(6-morpholinopyrimidin-4-yl)-1H-indazol-5-yl)-4,7-dihydrotetrazolo[1,5-a]pyrimidine-6-carboxamide]

IC50 [1] [nM]	IC50 [2] [nM]	SMILES
≤ 100	≤ 100	CC1=C(C(=O)Nc2ccc3[nH]nc(Br)c3c2)Cn2nnnc2N1C [Example 10, N-(3-Bromo-1H-indazol-5-yl)-4,5-dimethyl-4,7-dihydrotetrazolo[1,5-a]pyrimidine-6-carboxamide]
≤ 100	≤ 100	CC1=C(C(=O)Nc2ccc3[nH]nc(-c4ccc(S(N)(=O)=O)cc4)c3c2)Cn2nnnc2N1C [Example 11, 4,5-Dimethyl-N-(3-(4-sulfamoylphenyl)-1H-indazol-5-yl)-4,7-dihydrotetrazolo[1,5-a]pyrimidine-6-carboxamide]
≤ 100	100 to 1000	CC1=C(C(=O)Nc2ccc3[nH]ncc3c2)Cn2nnnc2N1C(=O)N(C)C [Example 12, N^6-(1H-indazol-5-yl)-N^4,N^4,5-trimethyltetrazolo[1,5-a]pyrimidine-4,6(7H)-dicarboxamide]
≤ 100	≤ 100	CC1=C(C(=O)Nc2ccc3[nH]ncc3c2)Cn2nnnc2N1c1ccccc1 [Example 13, N-(1H-indazol-5-yl)-5-methyl-4-phenyl-4,7-dihydrotetrazolo[1,5-a]pyrimidine-6-carboxamide]
100 to 1000	1000 to 10000	CC1=C(C(=O)Nc2ccc3[nH]ncc3c2F)Cn2nnnc2N1C [Example 14, N-(4-fluoro-1H-indazol-5-yl)-4,5-dimethyl-4,7-dihydrotetrazolo[1,5-a]pyrimidine-6-carboxamide]
≤ 100	100 to 1000	CC1=C(C(=S)Nc2ccc3[nH]ncc3c2)Cn2nnnc2N1C [Example 15, N-(1H-indazol-5-yl)-4,5-dimethyl-4,7-dihydrotetrazolo[1,5-a]pyrimidine-6-carbothioamide]
100 to 1000	1000 to 10000	CC1=C(C(=O)Nc2cnc3n[nH]cc3c2)C(C)n2nnnc2N1C (stereo not shown) [Example 16, 4,5,7-trimethyl-N-(2H-pyrazolo[3,4-b]pyridin-5-yl)-4,7-dihydrotetrazolo[1,5-a]pyrimidine-6-carboxamide]
1000 to 10000	> 10000	COc1cc2n[nH]cc2cc1NC(=O)C1=C(C)N(C)c2nnnn2C1 [Example 17, N-(6-methoxy-2H-indazol-5-yl)-4,5-dimethyl-4,7-dihydrotetrazolo[1,5-a]pyrimidine-6-carboxamide]
≤ 100	100 to 1000	CC1=C(C(=O)Nc2ccc3[nH]nc(C(N)=O)c3c2)Cn2nnnc2N1C [Example 18, N-(3-carbamoyl-2H-indazol-5-yl)-4,5-dimethyl-4,7-dihydrotetrazolo[1,5-a]pyrimidine-6-carboxamide]
100 to 1000	100 to 1000	CC1=C(C(=O)Nc2cc3c[nH]nc3cc2F)Cn2nnnc2N1C [Example 19, N-(6-fluoro-2H-indazol-5-yl)-4,5-dimethyl-4,7-dihydrotetrazolo[1,5-a]pyrimidine-6-carboxamide]
1000 to 10000	1000 to 10000	CC1=C(C(=O)Nc2cc3c[nH]nc3cc2C(N)=O)Cn2nnnc2N1C [Example 20, N-(6-carbamoyl-2H-indazol-5-yl)-4,5-dimethyl-4,7-dihydrotetrazolo[1,5-a]pyrimidine-6-carboxamide]
1000 to 10000	1000 to 10000	CC1=C(C(=O)Nc2cc3c[nH]nc3cc2N)Cn2nnnc2N1C [Example 21, N-(6-amino-2H-indazol-5-yl)-4,5-dimethyl-4,7-dihydrotetrazolo[1,5-a]pyrimidine-6-carboxamide]
≤ 100	≤ 100	CC1=C(C(=O)Nc2ccc3n[nH]c(Br)c3c2)[C@@H](C)n2nnnc2N1C [Example 22, (7R)—N-(3-bromo-2H-indazol-5-yl)-4,5,7-trimethyl-4,7-dihydrotetrazolo[1,5-a]pyrimidine-6-carboxamide]
1000 to 10000	1000 to 10000	CC1=C(C(=O)Nc2cc3c[nH]nc3cc2N)C(C)n2nnnc2N1C (stereo not shown) [Example 25, N-(6-amino-2H-indazol-5-yl)-4,5,7-trimethyl-4,7-dihydrotetrazolo[1,5-a]pyrimidine-6-carboxamide]
1000 to 10000	–	CC1=C(C(=O)Nc2ccc3c(c2)CC(=O)N3)Cn2nnnc2N1C [Example 29, 4,5-dimethyl-N-(2-oxoindolin-5-yl)-4,7-dihydrotetrazolo[1,5-a]pyrimidine-6-carboxamide]
